Data set [1] in a line: Inhibition of mammalian GGTase-1 expressed in Sf9 cells using wildtype His-tagged RAS-CVLL as substrate assessed as inhibition of substrate plasma membrane localisation. In kind it is cell membranes, Mammalia.
The nature of data set [2]: Competitive binding of mammalian GGTase-1 expressed in Sf9 cells assessed as inhibition of 3H-GGPP binding to RAS using Ras-CVLL as substrate incubated for 10 mins. Also noted: species or system Mammalia.
The test system of data set [3] is NIH3T3. Description: Antitumor activity against mouse NIH3T3 cells transfected with KRAS4B xenografted nude mouse assessed as inhibition of tumor growth at 35 mg/kg, ip administered in the presence of FTI-276 relative to control. The arrangement: scale not given: the % may be the effect or the level left. It counts as functional.
The subject of the next data set is Calu-1. Description: Antitumor activity against human Calu-1 cells transfected with KRAS mutant xenografted nude mouse assessed as inhibition of tumor growth at 70 mg/kg, ip administrated once daily measure for 40 to 80 days relative to control. In kind it is functional. Also noted: scale not given: the % may be the effect or the level left. The note with it: time 40-80 day. A general note: In xenograft studies the graft and the host belong to different species.

Data set [4] has as its system NIH3T3. Description: Antitumor activity against mouse NIH3T3 cells transfected with H-Ras CVLS xenografted nude mouse assessed as inhibition of tumor growth at 70 mg/kg, ip administered once daily relative to control. In kind it is functional. The arrangement: scale not given: the % may be the effect or the level left.
In a further data set the test system is MIA PaCa-2. The experiment in a line: Cytotoxicity against human MIA PaCa-2 cells harboring KRAS G12C mutant assessed as reduction in cell viability measured after 48 hrs by MTT assay. It counts as functional, cell-based. The note with it: MIA PaCa-2, 48 h.
A further data set deals with PANC-1. The experiment in a line: Cytotoxicity against human PANC-1 cells harboring KRAS G12D mutant assessed as reduction in cell viability measured after 48 hrs by MTT assay. As to conditions: PANC-1, 48 h. In kind it is functional, cell-based. In general terms: Tetrazolium dyes change colour on reduction, which living cells bring about.
The next data set relates to HCT-116. The experiment in a line: Cytotoxicity against human HCT-116 cells harboring KRAS G13D mutant assessed as reduction in cell viability measured after 48 hrs by MTT assay. As to conditions: HCT-116, 48 h. It counts as functional, cell-based.
A further data set deals with SW-620. The experiment in a line: Cytotoxicity against human SW-620 cells harboring KRAS G12V mutant assessed as reduction in cell viability measured after 48 hrs by MTT assay. It counts as functional.
The next data set has as its system MDA-MB-231. The experiment in a line: Cytotoxicity against human MDA-MB-231 cells harboring KRAS G13D mutant assessed as reduction in cell viability measured after 48 hrs by MTT assay. It counts as functional, cell-based. The note with it: MDA-MB-231, 48 h.
The test system of a further data set is NCI-H460. The experiment in a line: Cytotoxicity against human NCI-H460 cells harboring KRAS […] mutant assessed as reduction in cell viability measured after 48 hrs by MTT assay. It counts as functional, cell-based. The note with it: NCI-H460, 48 h.
Data set [5] in a line: Reduction in phosphor-ERK mutant level in tumor of human PANC-1 cells xenografted nude mouse at 40 mg/kg, po administered daily for 10 days by immunoblot analysis relative to control. In kind it is functional. The arrangement: scale not given: the % may be the effect or the level left. The note with it: time 10 day.
Another data set concerns Rat1. Description: Inhibition of cell growth in rat Rat1 cells transfected with HRAS. It counts as functional, cell-based.
The test system of data set [6] is A549. The experiment in a line: Antitumor activity against human A549 cells xenografted in athymic nude mice assessed as inhibition of tumor growth at 50 mg/kg, po administered daily measured after 16 days relative to control. The arrangement: scale not given: the % may be the effect or the level left. In kind it is functional. As to conditions: time 16 day.
Data set [7] in a line: Reduction in KRAS-GTP mutant level in tumor of human PANC-1 cells xenografted nude mouse at 40 mg/kg, po administered daily for 10 days by immunoblot analysis relative to control. In kind it is functional. The arrangement: scale not given: the % may be the effect or the level left. As to conditions: time 10 day.
The subject of the next data set is SK-MES-1. Description: Antitumor activity against human SK-MES-1 HTB-58 cells xenografted in athymic nude mouse assessed as reduction in tumour volume at 10 mg/kg, ip administered once daily measured after 24 days. It counts as functional. The note with it: time 24 day.
Data set [8] has as its system A549. Description: Antitumor activity against human A549 cells xenografted in athymic nude mouse assessed as reduction in tumour volume at 10 mg/kg, ip administered once daily measured after 24 days relative to control. In kind it is functional. The arrangement: scale not given: the % may be the effect or the level left. As to conditions: time 24 day.
The nature of data set [9]: Toxicity in nude mouse xenografted with human PANC-1 cells assessed as reduction in body weight at 40 mg/kg, po administered daily for 10 days relative to control. In kind it is organism-based. The arrangement: scale not given: the % may be the effect or the level left. The note with it: in vivo, 240 h, time 10 day.
Data set [10] can be described thus: Reduction in KRAS mutant level in tumor of human PANC-1 cells xenografted nude mouse at 40 mg/kg, po administered daily for 10 days by immunoblot analysis relative to control. As to conditions: time 10 day. It counts as functional. The arrangement: scale not given: the % may be the effect or the level left.
The next data set deals with HT-29. Description: Antiproliferative activity against human HT-29 cells assessed as reduction in cell growth at 100 uM measured after 7 days relative to control. It counts as functional. Also noted: scale not given: the % may be the effect or the level left. The note with it: time 7 day.

Structures are written as SMILES.

The term IC50 denotes the point on the concentration scale where inhibition reaches its midpoint. Broadly, the Ki is a measure of affinity in units of concentration, obtained from inhibition or displacement. The term EC50 denotes the concentration needed to bring the measured effect to its halfway point.

As to `CSCCc1c(-c2cccnc2)nn(-c2ccc(Cl)c(Cl)c2)c1OCCCC(=O)N[C@@H](Cc1ccccc1)C(N)=O`, the IC50 in data set [1] came to 2 µM. For the same compound, the inhibition constant (Ki) in [2] turned out to be 0.0008 µM.

On to `CC(C)C[C@H](NC(=O)c1ccc(NC[C@@H](N)CS)cc1-c1cccc2ccccc12)C(=O)O`, for which the Activity in the data set on NIH3T3 [3] is reported as 65%; in the data set with Calu-1, 60%; in the data set on NIH3T3 [4] it was 40%.

On to `CCCc1c(OCCCCCOc2coc(CO)cc2=O)ccc(Cl)c1Cl`, for which the IC50 in the data set on MIA PaCa-2 amounted to 10.2 µM; with PANC-1, 17.3 µM; in the data set with HCT-116 it was 8 µM; in the data set with SW-620 it was 37.1 µM; with MDA-MB-231, 7 µM; in the data set with NCI-H460, 15 µM.

`CC(C)=CCC/C(C)=C/CC/C(C)=C/CSc1ccccc1C(=O)O` [SALIRASIB]: the Activity is on record as 84% in data set [5]; 53.7% in the data set with A549 [6]; 64% in data set [7]; 0.03 cm3 with SK-MES-1; 53.8% in the data set on A549 [8]; 67% in data set [9]. Further, the results for the Activity (in [10]; with HT-29) were 50% and 85%, respectively. In the data set with Rat1, this compound displayed an EC50 of 7.5 µM.

The values above are taken from ChEMBL document CHEMBL5149962, “Targeting KRAS mutant cancers by preventing signaling transduction in the MAPK pathway” (Eur J Med Chem, 2021).
